Test results reported in patent US20250344698A1, “A METHOD OF CONTROLLING WEEDS” (SYNGENTA CROP PROTECTION AG, priority 2022, published 2025).

What was measured:
Assay type in all cases: in vivo
[1] = system: Amaranthus palmeri known PPO inhibitor sensitive population ('Sensitive'); test: Postemergence glasshouse test, dead or alive assessment, PPO inhibitor sensitive population; conditions: 14 days after application; for use rate achieving complete control (i.e. no surviving plants): 'Sensitive' population, postemergence; for Average % Survival of 14 repetitions: Sensitive
Text: (§1) The commercial standard PPO inhibitor fomesafen and compound 8 of the present application were applied to three Amaranthus palmeri populations in order to determine the impact of mutations at codon 128 in PPX2L from the wild-type arginine to a glycine or methionine.
(§2) Seeds were sown in seed trays containing ericaceous compost and covered with vermiculite. When approximately 1 inch in height plants were transplanted 1 per pot into 3 inch diameter pots containing ericaceous compost. The pots were watered and maintained in a glasshouse providing a 16 H photoperiod of 180 μmol m^−2 s^−1 with temperatures of 24° C. day and 18° C. night and 65% relative humidity until 3 inches tall at which point the herbicides were applied at the use rates specified in Table 1 below to 14 individual plants per rate of each of the biotypes.
(§3) All treatments were applied as dilutions in reverse osmosis water and with the commercial adjuvant Adigor® at 0.5% by volume. Prior to dilution with water compound 8 was initially dissolved to a 5% solution in a solvent mixture comprising 11.12% Emulsogen EL 360, 44.44% Dowanol DPM and 44.44% N-methyl pyrrolidone. Herbicide applications were carried out in a track sprayer with a flat fan nozzle applying the herbicide treatments at a rate of 200 L/ha^−1.
(§4) After treatment, the plants were watered and maintained in a glasshouse providing a 16 H photoperiod of 180 μmol m^−2 s^−1 with temperatures of 24° C. day and 18° C. night and 65% relative humidity until 14 days after application at which point they were assessed on a ‘dead or alive’ basis. The plants still alive at this point were classed as surviving the herbicide application and the averaged results of this assessment are presented in Table 1.

[2] = system: Amaranthus palmeri population homozygous for a methionine at codon 128 in PPX2L ('128M'); test: Postemergence glasshouse test, dead or alive assessment, 128M population; conditions: 14 days after application; for use rate achieving complete control (i.e. no surviving plants): '128M' population, postemergence; for Average % Survival of 14 repetitions: R128M
Text: as §1, §2, §3, §4

[3] = system: Amaranthus palmeri population homozygous for a glycine at codon 128 in PPX2L ('128G'); test: Postemergence glasshouse test, dead or alive assessment, 128G population; conditions: 14 days after application; for Average % Survival of 14 repetitions: R128G
Text: as §1, §2, §3, §4

With CCOC(=O)C1(C)CC(c2cc(-n3c(=O)cc(C(F)(F)F)n(C)c3=O)c(F)cc2Cl)=NO1 (stereo not drawn) [Compound 8, 3-(2-chloro-4-fluoro-5-(3-methyl-2,6-dioxo-4-trifluoromethyl-3,6-dihydropyrimidin-1(2H)-yl)phenyl)-5-methyl-4,5-dihydroisoxazole-5-carboxylic acid ethyl ester] the “use rate achieving complete control (i.e. no surviving plants)” value [1] was 8 g ai/ha^−1, the “Average % Survival of 14 repetitions” value ([1]; 0.25 g ai/ha^−1 postemergence) was 100% and the “Average % Survival of 14 repetitions” value ([1]; 0.5 g ai/ha^−1 postemergence) was 100%. For the same molecule, the “Average % Survival of 14 repetitions” value ([1]; 1 g ai/ha^−1 postemergence) was 50%, the “Average % Survival of 14 repetitions” value ([1]; 2 g ai/ha^−1 postemergence) was 43% and the “Average % Survival of 14 repetitions” value ([1]; 4 g ai/ha^−1 postemergence) was 14%. The “Average % Survival of 14 repetitions” value ([1]; 8 g ai/ha^−1 postemergence) was 0%, the “Average % Survival of 14 repetitions” value ([1]; 16 g ai/ha^−1 postemergence) was 0% and the “Average % Survival of 14 repetitions” value ([1]; 32 g ai/ha^−1 postemergence) was 0%. For the same molecule, the “Average % Survival of 14 repetitions” value ([1]; 64 g ai/ha^−1 postemergence) was 0%, the “Average % Survival of 14 repetitions” value ([1]; 128 g ai/ha^−1 postemergence) was 0% and the “use rate achieving complete control (i.e. no surviving plants)” value [2] was 16 g ai/ha^−1. For the same molecule, the “Average % Survival of 14 repetitions” value ([2]; 0.25 g ai/ha^−1 postemergence) was 100%, the “Average % Survival of 14 repetitions” value ([2]; 0.5 g ai/ha^−1 postemergence) was 100% and the “Average % Survival of 14 repetitions” value ([2]; 1 g ai/ha^−1 postemergence) was 100%. For the same molecule, the “Average % Survival of 14 repetitions” value ([2]; 2 g ai/ha^−1 postemergence) was 100%, the “Average % Survival of 14 repetitions” value ([2]; 4 g ai/ha^−1 postemergence) was 79% and the “Average % Survival of 14 repetitions” value ([2]; 8 g ai/ha^−1 postemergence) was 57%. The “Average % Survival of 14 repetitions” value ([2]; 16 g ai/ha^−1 postemergence) was 0%, the “Average % Survival of 14 repetitions” value ([2]; 32 g ai/ha^−1 postemergence) was 0% and the “Average % Survival of 14 repetitions” value ([2]; 64 g ai/ha^−1 postemergence) was 0%. For the same molecule, the “Average % Survival of 14 repetitions” value ([2]; 128 g ai/ha^−1 postemergence) was 0%, the “use rate achieving complete control (i.e. no surviving plants)” value ([3]; '128G' population, postemergence) was 16 g ai/ha^−1 and the “Average % Survival of 14 repetitions” value ([3]; 0.25 g ai/ha^−1 postemergence) was 100%. For the same molecule, the “Average % Survival of 14 repetitions” value ([3]; 0.5 g ai/ha^−1 postemergence) was 100%, the “Average % Survival of 14 repetitions” value ([3]; 1 g ai/ha^−1 postemergence) was 100% and the “Average % Survival of 14 repetitions” value ([3]; 2 g ai/ha^−1 postemergence) was 100%. The “Average % Survival of 14 repetitions” value ([3]; 4 g ai/ha^−1 postemergence) was 93%, the “Average % Survival of 14 repetitions” value ([3]; 8 g ai/ha^−1 postemergence) was 50% and the “Average % Survival of 14 repetitions” value ([3]; 16 g ai/ha^−1 postemergence) was 0%. For the same molecule, the “Average % Survival of 14 repetitions” value ([3]; 32 g ai/ha^−1 postemergence) was 0%, the “Average % Survival of 14 repetitions” value ([3]; 64 g ai/ha^−1 postemergence) was 0% and the “Average % Survival of 14 repetitions” value ([3]; 128 g ai/ha^−1 postemergence) was 0%.

CS(=O)(=O)NC(=O)c1cc(Oc2ccc(C(F)(F)F)cc2Cl)ccc1[N+](=O)[O-] [Fomesafen] was tested, and the “use rate achieving complete control (i.e. no surviving plants)” value [1] was 8 g ai/ha^−1, the “Average % Survival of 14 repetitions” value ([1]; 0.25 g ai/ha^−1 postemergence) was 100% and the “Average % Survival of 14 repetitions” value ([1]; 0.5 g ai/ha^−1 postemergence) was 100%. The “Average % Survival of 14 repetitions” value ([1]; 1 g ai/ha^−1 postemergence) was 93%, the “Average % Survival of 14 repetitions” value ([1]; 2 g ai/ha^−1 postemergence) was 71% and the “Average % Survival of 14 repetitions” value ([1]; 4 g ai/ha^−1 postemergence) was 14%. For the same molecule, the “Average % Survival of 14 repetitions” value ([1]; 8 g ai/ha^−1 postemergence) was 0%, the “Average % Survival of 14 repetitions” value ([1]; 16 g ai/ha^−1 postemergence) was 0% and the “Average % Survival of 14 repetitions” value ([1]; 32 g ai/ha^−1 postemergence) was 0%. For the same molecule, the “Average % Survival of 14 repetitions” value ([1]; 64 g ai/ha^−1 postemergence) was 0%, the “Average % Survival of 14 repetitions” value ([1]; 128 g ai/ha^−1 postemergence) was 0% and the “use rate achieving complete control (i.e. no surviving plants)” value [2] was 128 g ai/ha^−1. For the same molecule, the “Average % Survival of 14 repetitions” value ([2]; 0.25 g ai/ha^−1 postemergence) was 100%, the “Average % Survival of 14 repetitions” value ([2]; 0.5 g ai/ha^−1 postemergence) was 100% and the “Average % Survival of 14 repetitions” value ([2]; 1 g ai/ha^−1 postemergence) was 100%. For the same molecule, the “Average % Survival of 14 repetitions” value ([2]; 2 g ai/ha^−1 postemergence) was 100%, the “Average % Survival of 14 repetitions” value ([2]; 4 g ai/ha^−1 postemergence) was 100% and the “Average % Survival of 14 repetitions” value ([2]; 8 g ai/ha^−1 postemergence) was 100%. The “Average % Survival of 14 repetitions” value ([2]; 16 g ai/ha^−1 postemergence) was 93%, the “Average % Survival of 14 repetitions” value ([2]; 32 g ai/ha^−1 postemergence) was 43% and the “Average % Survival of 14 repetitions” value ([2]; 64 g ai/ha^−1 postemergence) was 21%. For the same molecule, the “Average % Survival of 14 repetitions” value ([2]; 128 g ai/ha^−1 postemergence) was 0%, the individuals killed ([3]; '128G' population, 128 g ai/ha^−1) was 5/14 and the “Average % Survival of 14 repetitions” value ([3]; 0.25 g ai/ha^−1 postemergence) was 100%. For the same molecule, the “Average % Survival of 14 repetitions” value ([3]; 0.5 g ai/ha^−1 postemergence) was 100%, the “Average % Survival of 14 repetitions” value ([3]; 1 g ai/ha^−1 postemergence) was 100% and the “Average % Survival of 14 repetitions” value ([3]; 2 g ai/ha^−1 postemergence) was 100%. The “Average % Survival of 14 repetitions” value ([3]; 4 g ai/ha^−1 postemergence) was 100%, the “Average % Survival of 14 repetitions” value ([3]; 8 g ai/ha^−1 postemergence) was 100% and the “Average % Survival of 14 repetitions” value ([3]; 16 g ai/ha^−1 postemergence) was 100%. The “Average % Survival of 14 repetitions” value ([3]; 32 g ai/ha^−1 postemergence) was 93%, the “Average % Survival of 14 repetitions” value ([3]; 64 g ai/ha^−1 postemergence) was 36% and the “Average % Survival of 14 repetitions” value ([3]; 128 g ai/ha^−1 postemergence) was 36%.
